Patent US11053221B2, “Substituted pyrimidines for inhibiting embryonic leucine zipper kinase activity” (Arrien Pharmaceuticals LLC, priority 2018, dated 2021)
Structures can show the parent of a compound that is named as a salt.

Assays:
MELK = molecular target: T1, MELK (Homo sapiens, UniProt Q14680); experiment: HotSpot kinase assay, MELK; format: biochemical; conditions: HotSpot radiometric 33P ATP assay, 25° C., 120 min
T1 construct: purchased Reaction Biology Corporation
Experimental: (§1) In vitro profiling of the MELK, MELK (T460M) kinase panel was performed at Reaction Biology Corporation using the “HotSpot” assay platform. In vitro profiling of the FLT3, FLT3 mutant forms; FLT3 (D835Y), FLT3 (F594R595insR), FLT3 (F594R595insREY), FLT3 (ITD), FLT3 (ITD)-NPOS, FLT3 (ITD)-W51 and FLT3 (R595_E596insEY) kinase panel is performed in the same manner.
(§2) Briefly, specific kinase/substrate pairs along with required cofactors were prepared in reaction buffer; 20 mM Hepes (pH 7.5), 10 mM MgCl2, 1 mM EGTA, 0.02% Brij35, 0.02 mg/mL BSA, 0.1 mM Na3VO4, 2 mM DTT, 1% DMSO. Compounds were delivered into the reaction, followed ˜20 min later by addition of a mixture of ATP (Sigma) and ^33P ATP (PerkinElmer) to a final concentration of […]. Reactions were carried out at 25° C. for 120 min, followed by spotting of the reactions onto P81 ion exchange filter paper (Whatman). Unbound phosphate was removed by extensive washing of filters in 0.75% phosphoric acid. […] IC50 values and curve fits were obtained using Prism (GraphPad Software).

FLT3 = molecular target: T2, FLT3 (Homo sapiens, UniProt P36888); experiment: HotSpot kinase assay, FLT3; format: biochemical; conditions: HotSpot radiometric 33P ATP assay, 25° C., 120 min
T2 construct: purchased Reaction Biology Corporation
T2 sequence (P36888 27-993): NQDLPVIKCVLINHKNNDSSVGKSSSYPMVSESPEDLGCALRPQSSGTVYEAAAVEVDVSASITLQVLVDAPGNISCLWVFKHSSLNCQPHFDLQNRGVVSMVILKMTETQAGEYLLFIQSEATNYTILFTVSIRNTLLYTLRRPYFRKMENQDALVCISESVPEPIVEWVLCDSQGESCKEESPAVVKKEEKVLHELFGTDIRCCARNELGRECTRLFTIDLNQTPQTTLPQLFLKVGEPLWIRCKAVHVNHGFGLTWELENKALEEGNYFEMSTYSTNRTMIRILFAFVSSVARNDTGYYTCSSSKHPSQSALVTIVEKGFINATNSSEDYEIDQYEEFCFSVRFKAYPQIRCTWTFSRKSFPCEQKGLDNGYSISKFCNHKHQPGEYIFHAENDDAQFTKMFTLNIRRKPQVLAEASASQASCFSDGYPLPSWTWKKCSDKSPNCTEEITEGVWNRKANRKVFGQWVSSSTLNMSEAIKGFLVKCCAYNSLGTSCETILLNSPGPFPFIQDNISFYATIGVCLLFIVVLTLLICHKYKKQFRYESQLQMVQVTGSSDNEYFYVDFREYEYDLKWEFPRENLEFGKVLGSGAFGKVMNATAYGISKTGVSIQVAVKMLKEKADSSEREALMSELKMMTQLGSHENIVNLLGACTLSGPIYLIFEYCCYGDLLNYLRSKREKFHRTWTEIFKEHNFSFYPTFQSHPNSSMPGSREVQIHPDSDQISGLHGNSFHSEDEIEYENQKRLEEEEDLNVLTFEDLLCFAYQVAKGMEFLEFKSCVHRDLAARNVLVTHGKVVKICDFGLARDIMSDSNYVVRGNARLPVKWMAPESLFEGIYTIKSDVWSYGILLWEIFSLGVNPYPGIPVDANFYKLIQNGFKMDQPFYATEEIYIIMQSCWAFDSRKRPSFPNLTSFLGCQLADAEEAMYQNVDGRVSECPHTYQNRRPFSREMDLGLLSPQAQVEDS
Experimental: as §1, §2

T1 sequence (Q14680 whole entry): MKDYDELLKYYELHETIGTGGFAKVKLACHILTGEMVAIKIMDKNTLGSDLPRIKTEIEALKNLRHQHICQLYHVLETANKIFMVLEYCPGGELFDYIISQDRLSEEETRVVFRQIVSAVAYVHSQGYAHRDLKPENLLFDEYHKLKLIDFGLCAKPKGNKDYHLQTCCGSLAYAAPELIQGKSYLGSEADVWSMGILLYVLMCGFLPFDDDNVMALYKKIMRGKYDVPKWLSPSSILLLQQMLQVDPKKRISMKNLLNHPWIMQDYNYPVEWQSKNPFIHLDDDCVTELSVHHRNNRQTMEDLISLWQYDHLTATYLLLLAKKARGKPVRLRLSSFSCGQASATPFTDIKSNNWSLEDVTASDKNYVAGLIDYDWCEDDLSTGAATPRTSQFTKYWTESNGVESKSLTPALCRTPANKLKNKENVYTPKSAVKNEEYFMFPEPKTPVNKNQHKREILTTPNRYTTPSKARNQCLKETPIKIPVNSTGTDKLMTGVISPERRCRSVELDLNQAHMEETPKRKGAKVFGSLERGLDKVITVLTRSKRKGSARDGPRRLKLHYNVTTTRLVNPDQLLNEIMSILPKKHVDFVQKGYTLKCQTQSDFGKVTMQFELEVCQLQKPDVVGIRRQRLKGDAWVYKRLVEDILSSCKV

Structure (SMILES) | IC50 (MELK) | IC50 (FLT3)
N[C@H]1CC[C@@H](COc2cncnc2-c2cnn(-c3c(F)cccc3F)c2)CC1 [Compound I-1, (1s,4s)-4-(((4-(1-(2,6-difluorophenyl)-1H-pyrazol-4-yl)pyrimidin-5-yl)oxy)methyl)cyclo-hexan-1-amine] | < 200 nM | < 200 nM
N[C@H]1CC[C@@H](COc2cncnc2-c2cnn(-c3ccccc3C(F)(F)F)c2)CC1 [Compound I-2, (1s,4s)-4-(((4-(1-(2-(trifluoromethyl)phen-yl)-1H-pyrazol-4-yl)pyrimidin-5-yl)oxy)methyl)cyclo-hexan-1-amine] | > 1000 nM | 200 to 1000 nM
N[C@H]1CC[C@@H](COc2cncnc2-c2cnn(-c3ccccc3OC(F)(F)F)c2)CC1 [Compound I-3, (1s,4s)-4-(((4-(1-(2-(trifluoromethoxy)phen-yl)-1H-pyrazol-4-yl)pyrimidin-5-yl)oxy)methyl)cyclo-hexan-1-amine] | 200 to 1000 nM | 200 to 1000 nM
N#Cc1ccccc1-n1cc(-c2ncncc2OC[C@H]2CC[C@@H](N)CC2)cn1 [Compound I-4, 2-(4-(5-(((1s,4s)-4-aminocyclohexyl)meth-oxy)pyrimidin-4-yl)-1H-pyrazol-1-yl)benzonitrile] | 200 to 1000 nM | < 200 nM
COc1ccccc1-n1cc(-c2ncncc2OC[C@H]2CC[C@@H](N)CC2)cn1 [Compound I-5, (1s,4s)-4-(((4-(1-(2-methoxyphenyl)-1H-pyrazol-4-yl)pyrimidin-5-yl)oxy)methyl)cyclo-hexan-1-amine] | < 200 nM | < 200 nM
N[C@@H]1CC[C@H](COc2cncnc2-c2cnn(-c3ccccc3F)c2)C1 [Compound I-6, (1R,3S)-3-(((4-(1-(2-fluorophenyl)-1H-pyrazol-4-yl)pyrimidin-5-yl)oxy)methyl)cyclo-pentan-1-amine] | 200 to 1000 nM | 200 to 1000 nM
CN(C)[C@@H]1CC[C@H](COc2cncnc2-c2cnn(-c3ccccc3F)c2)C1 [Compound I-7, (1R,3S)-3-(((4-(1-(2-fluorophenyl)-1H-pyrazol-4-yl)pyrimidin-5-yl)oxy)methyl)-N,N-dimethylcyclopentan-1-amine] | 200 to 1000 nM | 200 to 1000 nM
CN(C)C[C@@H]1CC[C@H](COc2cncnc2-c2cnn(-c3ccccc3F)c2)C1 [Compound I-8, 1-((1R,3S)-3-(((4-(1-(2-fluorophenyl)-1H-pyrazol-4-yl)pyrimidin-5-yl)oxy)methyl)cyclo-pentyl)-N,N-dimethylmethanamine] | < 200 nM | < 200 nM
CN(C)[C@H]1CC[C@@H](COc2cncnc2-c2cnn(-c3ccccc3F)c2)CC1 [Compound I-9, (1s,4s)-4-(((4-(1-(2-fluorophenyl)-1H-pyrazol-4-yl)pyrimidin-5-yl)oxy)methyl)-N,N-dimethylcyclohexan-1-amine] | 200 to 1000 nM | < 200 nM
NC1CCN(c2cncnc2-c2cnn(-c3ccccc3F)c2)CC1 [Compound I-10, 1-(4-(1-(2-fluorophenyl)-1H-pyrazol-4-yl)pyrimidin-5-yl)piperidin-4-amine] | > 1000 nM | 200 to 1000 nM
N[C@H]1CC[C@@H](CNc2cncnc2-c2cnn(-c3ccccc3F)c2)CC1 [Compound I-11, N-(((1s,4s)-4-aminocyclohexyl)meth-yl)-4-(1-(2-fluorophenyl)-1H-pyrazol-4-yl)pyrimidin-5-amine] | > 1000 nM | 200 to 1000 nM
N[C@H]1CC[C@@H](CNc2cncnc2-c2cnn(-c3c(F)cccc3F)c2)CC1 [Compound I-12, N-(((1s, 4s)-4-aminocyclohexyl)methyl)-4-(1-(2,6-difluorophenyl)-1H-pyrazol-4-yl)-pyrimidin-5-amine trifluoroacetate] | > 1000 nM | 200 to 1000 nM
N[C@@H]1CC[C@@H]1COc1cncnc1-c1cnn(-c2ccccc2F)c1 [Compound I-13, (1R,2S)-2-(((4-(1-(2-fluorophenyl)-1H-pyrazol-4-yl)pyrimidin-5-yl)oxy)methyl)cyclo-butan-1-amine] | > 1000 nM | > 1000 nM
Cc1cccc(F)c1-n1cc(-c2ncncc2OC[C@H]2CC[C@@H](N)CC2)cn1 [Compound I-14, (1s,4s)-4-(((4-(1-(2-fluoro-6-methylphenyl)-1H-pyrazol-4-yl)pyrimidin-5-yl)oxy)methyl)cyclo-hexan-1-amine] | > 1000 nM | 200 to 1000 nM
CC(C)N[C@H]1CC[C@@H](COc2cncnc2-c2cnn(-c3ccccc3F)c2)CC1 [Compound I-15, (1s,4s)-4-(((4-(1-(2-fluorophenyl)-1H-pyrazol-4-yl)pyrimidin-5-yl)oxy)methyl)-N-isopropylcyclohexan-1-amine] | 200 to 1000 nM | < 200 nM
CC(C)N1CCC(COc2cncnc2-c2cnn(-c3ccccc3F)c2)CC1 [Compound I-16, 4-(1-(2-fluorophenyl)-1H-pyrazol-4-yl)-5-((1-isopropylpiperidin-4-yl)methoxy)pyrim-idine] | > 1000 nM | > 1000 nM
CC(Oc1cncnc1-c1cnn(-c2ccccc2F)c1)[C@H]1CC[C@@H](N)CC1 (stereo partly drawn) [Compound I-17, (1S,4s)-4-((R)-1-((4-(1-(2-fluorophenyl)-1H-pyrazol-4-yl)pyrimidin-5-yl)oxy)ethyl)cyclo-hexan-1-amine] | 200 to 1000 nM | 200 to 1000 nM
Cc1cccc(F)c1-n1cc(-c2ncncc2OC[C@H]2CCC[C@@H](N)C2)cn1 [Compound I-18, (1R,3S)-3-(((4-(1-(2-fluoro-6-methylphenyl)-1H-pyrazol-4-yl)pyrimidin-5-yl)oxy)methyl)cyclo-hexan-1-amine] | > 1000 nM | 200 to 1000 nM
N[C@H]1CC[C@@H](CCOc2cncnc2-c2cnn(-c3ccccc3F)c2)CC1 [Compound I-19, (1s,4s)-4-(2-((4-(1-(2-fluorophenyl)-1H-pyrazol-4-yl)pyrimidin-5-yl)oxy)ethyl)cyclo-hexan-1-amine] | < 200 nM | < 200 nM
N[C@H]1CC[C@@H](COc2cncnc2-c2cnn(-c3cc(F)cc(F)c3)c2)CC1 [Compound I-20, (1s,4s)-4-(((4-(1-(3,5-difluorophenyl)-1H-pyrazol-4-yl)pyrimidin-5-yl)oxy)methyl)cyclo-hexan-1-amine] | > 1000 nM | 200 to 1000 nM
N[C@H]1CC[C@@H](COc2cncnc2-c2cnn(-c3ccc(O)c(F)c3)c2)CC1 [Compound I-21, 4-(4-(5-(((1s,4s)-4-aminocyclohexyl)meth-oxy)pyrimidin-4-yl)-1H-pyrazol-1-yl)-2-fluorophenol] | < 200 nM | < 200 nM
COc1ccc(-n2cc(-c3ncncc3OC[C@H]3CC[C@@H](N)CC3)cn2)cc1F [Compound I-22, (1s,4s)-4-(((4-(1-(3-fluoro-4-methoxyphenyl)-1H-pyrazol-4-yl)pyrimidin-5-yl)oxy)methyl)cyclo-hexan-1-amine] | < 200 nM | < 200 nM
Fc1ccccc1-n1cc(-c2ncncc2OCC2CCNCC2)cn1 [Compound I-23, 4-(1-(2-fluorophenyl)-1H-pyrazol-4-yl)-5-(piperidin-4-ylmethoxy)pyrim-idine] | < 200 nM | < 200 nM
Fc1ccccc1-n1cc(-c2ncncc2NCC2CCNCC2)cn1 [Compound I-24, 4-(1-(2-fluorophenyl)-1H-pyrazol-4-yl)-N-(piperidin-4-ylmethyl)pyrimidin-5-amine] | > 1000 nM | > 1000 nM
